Here are results for 1 molecule from patent US11034702B2, “Thienoisoquinolines and their derivatives for the treatment of cancer” (VALORBEC, SOCIÉTÉ EN COMMANDITE, priority 2016, dated 2021).

Structures are written as SMILES.

For one test, the system named is HCT116 cells. Briefly: Mitotic spindle phenotype and centrosome fragment distance in HCT116 cells. Format: cell-based. As for the experimental part: (§1) FIG. 2A) is a line graph showing the percentage of HCT116 (p53−/−) cells, A549 cells, HeLa cells and H1299 cells in mitosis after treatment with various concentrations of C75 for one population doubling time. All of the cell lines show an increase in the proportion of mitotic cells after treatment with 200 nM C75. The bars indicate standard deviation. […] While the mitotic spindles were not dramatically altered by C75 in HFF1 cells, they were monopolar (as shown) or fragmented in the other cell types. […] The mitotic spindles were more strongly fragmented after C75 treatment in these cells vs. the cells in FIG. 2B). […] While mitotic spindles recovered bipolarity after removing nocodazole, they remained multipolar after removing C75. FIG. 2F) is a series of time-lapse images of a live HeLa cell expressing GFP:tubulin after treatment with C75 as shown in 2D) and 2E). The scale bar for all cells is 10 μm. FIG. 2G) is a schematic showing the putative target for C75. Healthy cells have two centrosomes that separate and form a bipolar spindle, while cancer cells have aberrant centrosomes that cluster to form ‘pseudo’ bipolar spindles, and C75 may target this process and their integrity.
FIG. 3A) is a line graph showing the percentage of mitotic HeLa or HFF1 cells treated with a range of paclitaxel (Taxol™; tubulin-targeting drug) concentrations+/−C75 as indicated. The bars indicate standard deviation. FIG. 3B) is a series of bar graphs showing the proportion of HCT116 cells that have monopolar spindles, bipolar spindles with aligned chromosomes, bipolar spindles with misaligned chromosomes and multipolar/fragmented spindles after treatments as shown. Treatments include DMSO (control), varying concentrations of paclitaxel and/or varying concentrations of C75 after 7 hours. While treatment of HCT116 cells with 2.5 nM paclitaxel caused a threshold of mitotic spindle phenotypes, adding increasing concentrations of C75 in combination with 2.5 nM paclitaxel caused the phenotypes to progressively worsen. FIG. 3C) is bar graph showing the average distance between centrosome fragments in HCT116 cells after treatments as shown. While centrosome fragments moved closer together with increased concentrations of paclitaxel, they moved further apart with increased concentrations of C75. […] FIG. 3E) is a line graph showing the percentage of mitotic HeLa or HFF1 cells treated with a range of nocodazole concentrations+/−C75 as indicated. The bars indicate standard deviation. […]
(§2) C75 was also tested for efficacy in different cancer cell lines. […] To further assess the role of C75 in affecting centrosomes, HeLa cells were treated with C75 for a short period of time (5 minutes), then C75 was removed and the cells were analyzed for spindle phenotypes (schematic in FIG. 2D). […]

In another test the test system is HCT116 (p53-/-) cells. Put plainly: Mitotic arrest (percentage of cells in mitosis) in HCT116 cells. It is filed as cell-based. Particulars: HCT116, within one population doubling time. As for the experimental part: as §1, with “Healthy cells have two centrosomes that separate and form a bipolar spindle, while cancer cells have aberrant centrosomes that cluster to form ‘pseudo’ bipolar spindles, and C75 may target this process and their integrity.” left out
as §2

For `COc1ccc(S(=O)(=O)N2Cc3ccccc3-c3sc(Br)cc32)cc1` [Compound C75], in the test with HCT116 cells (HCT116 (p53-/-), 300 nM, 6-8 hours), the mitotic spindle phenotype entry is “most of the spindles were severely fragmented”. Further, in the test on HCT116 cells (HCT116, 2.5 nM paclitaxel + increasing C75, 7 hours), the “effect of C75 on phenotypes caused by paclitaxel” value is listed as “enhances the phenotypes”. The “change of centrosome fragment distance when paclitaxel was combined with C75” value with HCT116 cells (HCT116, paclitaxel + C75) is recorded as “significant increase in fragment distance”. Moreover, the “concentration causing mitotic arrest” value with HCT116 (p53-/-) cells was 100 to 200 nM.
